Assay [1] concerns nonalcoholic steatohepatitis (NASH) animal model. Briefly: Body weight change in nonalcoholic steatohepatitis (NASH) animal model, high fat diet. The format is in vivo, ICR mice. The note with it: high-fat diet mice; 10 mg/kg each drug i.p. three times a week for 6 weeks.
The next assay has as its system NASH animal model. Briefly: Triglycerides in liver tissue by Oil Red O staining in NASH animal model. The note with it: HFD mice after 13 weeks of diet and drug administration.

These results are taken from patent US20240108611A1, “COMPOSITION FOR PREVENTING OR TREATING METABOLIC DISEASES, CONTAINING TORSEMIDE AND CROMOLYN” (ONCOCROSS CO., LTD., priority 2021, published 2024).

For `O=C(O)c1cc(=O)c2c(OCC(O)COc3cccc4oc(C(=O)O)cc(=O)c34)cccc2o1` [cromolyn], in assay [1], the “change in body weight compared to high-fat diet control group (HFD PBS)” value is reported as “no significant change”. Also, in the assay on NASH animal model, the “triglycerides in liver tissue (Oil Red O staining) versus HFD PBS group” value is “relatively decreased”.
